“Also recorded” adds a separate entry of the source.
Key:
[1] = system: osteosarcoma cells and immortalized cell lines; assay: Cell survival, summary statement; format: cell-based
Experimental: (§1) MG63 and TE85 human osteosarcoma cells, and ROS 17/2.8 rat osteosarcoma cells were grown in DMEM/F12 phenol-red free medium containing 10% charcoal-stripped fetal bovine serum (FBS) and supplemented with 100 units/ml penicillin, 100 μg/ml streptomycin. Cell were incubated at 37° C. under 5% CO2 in air. Cells were plated at 5×10^4 cells per well into 24 well plates containing 1 ml of medium per well. After allowing the cells to attach overnight, media in the wells were replaced with fresh 1 ml medium. Human fetal osteoblasts (hFOB) cells and hFOB cells overexpressing estrogen receptor-alpha (hFOB-ERα) and estrogen receptor-beta (hFOB-ERβ) were grown in DMEM/F12 medium containing FBS, penicillin, streptomycin and Geneticin (300 μg/mL). The laboratory of Dr. B. L. Riggs at Mayo Clinic provided primary human osteoblast (HOB) cells. HOB cells were basically established from cancellous bone obtained as waste from orthopedic procedures and cultured as explants to generate the osteoblast-like monolayers as described by Borke et al., J. Clin. Endocrinol. Metab., 1988, 67:1299-1304. Human FOB cells and hFOB cells stably transfected with estrogen receptors (ERs) were maintained at 34° C., while all other cells were incubated at 37° C. under 5% CO2 in air.
(§2) Estrogen metabolites were diluted 1000 fold to give the final required concentrations in each well, and maintained for 72 hrs. The metabolites 2ME, 2OHE, and E2 were purchased from Sigma Chemical Company (St. Louis, Mo.). Stock solutions for each metabolite were made in 95% ethanol. Cell growth was measured by taking the viable cell count. At the end of metabolite treatment, cells were harvested, stained with trypan blue, and counted under a light microscope.

female Fisher 344 rats = assay: Growth plate histomorphometry and longitudinal bone growth rate in rats; format: in vivo, rat; conditions: 100 mg/kg/day oral gavage 13 days
Experimental: All studies were approved by the Institutional Animal Care and Use Committee of the Mayo Clinic, Rochester, Minn. Rats were kept in plastic cages (3 per cage) under standard conditions of a 12 hr dark and 12 hr light cycle with food (Purina Laboratory rodent diet 5001, Ralston-Purina, St. Louis, Mo.) and water ad libitum. Rooms were maintained at a temperature of 24° C.
Twenty-five female 3-month-old Fisher 344 rats, weighing approximately 141-160 g, were purchased from Harlan Sprague Dawley (Madison, Wis.). The rats were divided into 3 groups (8 or 9 rats/group) of a baseline group that was sacrificed on the first day of treatment, a control group that was treated with carrier (liposomes) only, and a 2ME treatment group. […] Fluorochromes were given juxta tail vein. Declomycin (20 mg/kg) was given on the first day of treatment and calcein (15 mg/kg) two days prior to sacrifice, in order to label mineralizing bone and cartilage. Twenty-four hours after the last dosage, rats were anesthetized with ketamine HCl (100 mg/kg):xylaxine HCl (10 mg/kg) and sacrificed by decapitation. […] Tibiae were quickly excised and fixed for histomorphometry in a solution of 70% ethanol.
Bone histomorphometry Histomorphometric measurements were performed with the OsteoMeasure Analysis System (OsteoMetrics, Atlanta, Ga.), which consisted of a Pentium 1133 computer coupled to a photomicroscope and image analysis system. […] The region of interest was traced, and the line lengths and area bounded by lines were calculated automatically.
Growth Plate Measurements The longitudinal bone growth rate was measured at 5 equally spaced sites across the growth plate as the distance between the declomycin and calcein labels that had been deposited into the mineralizing front of the hypertrophic zone of the growth plate divided by the 11 day interval between application of the sequential fluorochromes.
Growth plate thickness was measured as the mean distance between the zone of vascular invasion and the resting zone. Thicknesses of the proliferative zone and hypertrophic zone were also measured.
Statistical Analvses All values are expressed as mean±standard error (SE). Significant differences between groups were determined by Fisher's Protected Least Significant Difference post hoc test for multiple group comparisons following detection of significance by 1-way ANOVA. Significance was considered at p values ≦0.05.

[2] = Serum cholesterol in 2ME treated rats; format: in vivo, rat; conditions: 100 mg/kg/day oral gavage 13 days
MG63 cells = assay: Cytokine and growth factor mRNA levels by RNase protection assay; format: cell-based, human; conditions: 10 μM
Experimental: Changes in steady state mRNA levels for cytokines implicated in the regulation of bone formation and resorption were measured using RNase Protection assays. For RNA isolation and RNase protection assays, MG63 cells were plated at 10^6 cells per T75 culture flask a day prior to metabolite treatment. The next day, the medium was removed and replaced with fresh medium containing 10 μM concentrations of 2ME and incubated for 12, 24, 48, and 72 hours. Cells were harvested and cell pellets were used for RNA isolation. Total cellular RNA was extracted and isolated using a modified organic solvent method and the RNA yields were determined spectrohotometrically at 260 nm. Total cellular RNA was analyzed by RNase protection assays using antisense RNA probes for transforming growth factor-beta (TGF-β), tumor necrosis factor (TNF) α and β, interleukin (IL) 1α, 1β, 1Ra, 6, 10, 12 (p35 and p40), interferon (IFN) β and γ, and lymphotoxin (LT) β. Quantitation of protected RNA fragments was performed by PhosphorImager analyses and normalized to ribosomal structural protein L32 or glyceraldehyde 3-phosphate dehydrogenase levels. Results are presented in FIG. 8 and Table 4, and are representative of 3 independent treatments.

[3] = system: primary human osteoblast (HOB) cells; assay: Cell survival, viable cell count with trypan blue; format: cell-based
Experimental: as §1, §2

[4] = system: Human fetal osteoblasts (hFOB) cells; assay: Cell survival, viable cell count with trypan blue; format: cell-based; conditions: 2 μM, 72 h
Experimental: as §1, §2

[5] = system: TE85 human osteosarcoma cells; assay: Cell survival, viable cell count with trypan blue; format: cell-based; conditions: 2 μM, 72 h
Experimental: as §1, §2

[6] = system: ROS 17/2.8 rat osteosarcoma cells; assay: Cell survival, viable cell count with trypan blue; format: cell-based; conditions: 2 μM, 72 h
Experimental: as §1, §2

COc1cc2c(cc1O)CC[C@@H]1[C@@H]2CC[C@]2(C)[C@@H](O)CC[C@@H]12 [2ME, 2-methoxyestradiol]
reduction of cell survival ([1]; 2 μM, continuous treatment, 72 hours): 85%
reduction of cell survival ([1]; 20 μM): 95%
Proliferative zone thickness (female Fisher 344 rats; mean ± SE, control 42 ± 5): 11 ± 3 μm
Hypertrophic zone thickness (female Fisher 344 rats; mean ± SE, control 46 ± 6): 6 ± 2 μm
Growth plate thickness (female Fisher 344 rats; mean ± SE, control 153 ± 14): 70±6 μm
effect on longitudinal bone growth (in words) (female Fisher 344 rats; proximal tibia, 100 mg/kg/day): decreased; also recorded: highly significant decreases
longitudinal bone growth rate (female Fisher 344 rats; proximal tibia, control 55±2): 20±2 μm/day
effect on serum cholesterol (in words) [2]: decreased; also recorded: highly significant decreases
increase of TGF-β1 mRNA level (MG63 cells): 177%
increase of TGF-β2 mRNA level (MG63 cells): 289%
increase of TGF-β3 mRNA level (MG63 cells): 178%
IFN-β mRNA (MG63 cells; 12-72 hours): Increased
IFN-γ mRNA (MG63 cells; 12-72 hours): Not detected
IL-1 Ra mRNA (MG63 cells; 12-72 hours): Not detected
IL-1α mRNA (MG63 cells; 12-72 hours): Not detected
IL-1β mRNA (MG63 cells; 12-72 hours): Not detected
IL-6 mRNA (MG63 cells; 12-72 hours): Not detected
IL-10 mRNA (MG63 cells; 12-72 hours): Not detected
IL-12 p35 mRNA (MG63 cells; 12-72 hours): Not detected
IL-12 p40 mRNA (MG63 cells; 12-72 hours): Not detected
LT-β mRNA (MG63 cells; 12-72 hours): Not detected
TGF-β1 mRNA (MG63 cells; 12-72 hours): Increased
TGF-β2 mRNA (MG63 cells; 12-72 hours): Increased
TGF-β3 mRNA (MG63 cells; 12-72 hours): Increased
TNF-α mRNA (MG63 cells; 12-72 hours): Not detected
TNF-β mRNA (MG63 cells; 12-72 hours): Not detected
maximum increase of interferon-β mRNA level (MG63 cells; by 48 h): 2100%
increase of interferon-β mRNA level (MG63 cells; within 12 h): 500%
growth of normal osteoblasts (in words) [3]: not affected
survival ([3]; 2 μM, 72 h): 89%
cell numbers reduced to [4]: 15%
cell survival rate [5]: 9%
cell numbers reduced to [6]: 19%

From patent publication US6730665B1, “Treatment of bone cancer” (Mayo Foundation for Medical Education and Research, priority 1999, dated 2004)
